Values of other authors as cited in patent US10201964B2, “Treatment for reducing the toxicity of 3D-printed parts” (The Regents of the University of California, priority 2015, dated 2019).

Legend:
[1] = when used as scaffolds
[2] = system: rat fetuses

SMILES | cardiovascular failure [1] | toxic effects on embryonic and fetal development [2]
C=C(C)C(=O)OC [methylmethacrylate] | associated with irreversible cardiovascular failure | –
C=C(C)C(=O)O [methacrylic acid] | – | toxic effects on embryonic and fetal development in rat fetuses
C=CC(=O)O [acrylic acid] | – | toxic effects on embryonic and fetal development in rat fetuses
